Data from patent US8476256B2, “Diazonamide analogs” (Joyant Pharmaceuticals, Inc., priority 2008, dated 2013).

Tests used:
[1] = tested on: U937 (human leukemic monocyte lymphoma) cell line; assay: Cell viability assay (CELL-TITER-GLO), U937; type: cell-based; settings: U-937, U937 cells, 48 hour treatment, 1 nM to 1 μM
Description: (§1) Cell viability assays were run using standard protocols known to those of skill in art. Cells were plated in 96 well plates at the density of 3,000-10,000 cells per well. Twenty four hours later, cells were treated with increasing concentration of test compounds (1 nM to 1 μM). After another 48 hour, cell survival was measured using CELL-TITER-GLO® reagent (Promega) following the protocol provided by the manufacture. The IC50 value was determined as the concentration of test compound that kills 50% of the cell population.
(§2) Cell viability data generated according to the protocol described herein was generated for representative compounds in the A2058 (human melanoma) and U937 (human leukemic monocyte lymphoma) cell lines. The compound of Example 16 (“Compound J”) was used as a reference compound.

[2] = tested on: A2058 (human melanoma) cell line; assay: Cell viability assay (CELL-TITER-GLO), A2058; type: cell-based; settings: A2058 cells, 48 hour treatment, 1 nM to 1 μM
Description: as §1, §2

Compound | IC50 [1] | IC50 [2]
CC(C)[C@@H]1NC(=O)C(NC(=O)C2(O)CC2)Cc2ccc3c(c2)[C@]24C5=C(N=C1O5)c1ncc(o1)-c1c[nH]c5cccc(c15)-c1cccc2c1NC4O3 (some centres unmarked) [Example 25] | 0.42 µM | 0.769 µM
CC(C)[C@@H]1NC(=O)C(NC(=O)[C@@H]2CCOC2)Cc2ccc3c(c2)[C@]24C5=C(N=C1O5)c1ncc(o1)-c1c[nH]c5cccc(c15)-c1cccc2c1NC4O3 (some centres unmarked) [Example 54] | 0.078 µM | 0.081 µM
CCC(O)(CC)C(=O)N[C@H]1Cc2ccc3c(c2)C24C5=C(N=C(O5)[C@H](C(C)C)NC1=O)c1ncc(o1)-c1c[nH]c5cccc(c15)-c1cc(Br)cc2c1N[C@H]4O3 (some centres unmarked) [Example 87] | > 1 µM | > 1 µM
CCC(CC)C(=O)NC1Cc2ccc3c(c2)[C@]24C5=C(N=C(O5)[C@H](C(C)C)NC1=O)c1ncc(o1)-c1c[nH]c5cccc(c15)-c1cccc2c1NC4O3 (some centres unmarked) [Example 62] | 0.247 µM | 0.556 µM
CC(C)[C@H](O)C(=O)N[C@H]1Cc2ccc3c(c2)C24C5=C(N=C(O5)[C@H](C(C)C)NC1=O)c1ncc(o1)-c1c[nH]c5cccc(c15)-c1cc(Br)cc2c1N[C@H]4O3 (some centres unmarked) [Example 84] | 0.648 µM | 0.51 µM
CC(C)[C@@H]1NC(=O)C(NC(=O)C2CCCCC2)Cc2ccc3c(c2)[C@]24C5=C(N=C1O5)c1ncc(o1)-c1c[nH]c5cccc(c15)-c1cccc2c1NC4O3 (some centres unmarked) [Example 51] | 0.276 µM | 0.235 µM
CC(C)[C@@H]1NC(=O)C(NC(=O)C(C)(C)C)Cc2ccc3c(c2)[C@]24C5=C(N=C1O5)c1ncc(o1)-c1c[nH]c5cccc(c15)-c1cccc2c1NC4O3 (some centres unmarked) [Example 60] | 0.255 µM | 0.538 µM
CC(C)[C@@H]1NC(=O)C(NC(C[N+](=O)[O-])C(F)(F)F)Cc2ccc3c(c2)C24C5=C(N=C1O5)c1ncc(o1)-c1c[nH]c5cccc(c15)-c1cccc2c1N[C@H]4O3 (some centres unmarked) [Example 92] | 0.75 µM | > 1 µM
CCC(CO)(CO)C(=O)NC1Cc2ccc3c(c2)[C@]24C5=C(N=C(O5)[C@H](C(C)C)NC1=O)c1ncc(o1)-c1c[nH]c5cccc(c15)-c1cccc2c1NC4O3 (some centres unmarked) [Example 28] | 0.133 µM | 0.208 µM
CC(C)[C@@H]1NC(=O)C(NC=O)Cc2ccc3c(c2)C24C5=C(N=C1O5)c1ncc(o1)-c1c[nH]c5cccc(c15)-c1cccc2c1N[C@H]4O3 (some centres unmarked) [Example 66] | 0.499 µM | 0.766 µM
CN[C@H](C(=O)N[C@H]1Cc2ccc3c(c2)C24C5=C(N=C(O5)[C@H](C(C)C)NC1=O)c1ncc(o1)-c1c[nH]c5cccc(c15)-c1cccc2c1N[C@H]4O3)C(C)C (some centres unmarked) [Example 34] | 0.393 µM | 0.221 µM
COC(=O)c1nc2oc1-c1c[nH]c3cccc(c13)-c1cccc3c1N[C@H]1Oc4ccc5cc4C31c1oc(nc1-2)[C@H](C(C)C)NC(=O)C(NC(=O)[C@@H](O)C(C)C)C5 (some centres unmarked) [Example 76] | 0.018 µM | 0.013 µM
CC(C)COC(=O)NC1Cc2ccc3c(c2)[C@]24C5=C(N=C(O5)[C@H](C(C)C)NC1=O)c1ncc(o1)-c1c[nH]c5cccc(c15)-c1cccc2c1NC4O3 (some centres unmarked) [Example 69] | 0.272 µM | 0.541 µM
CCCSC(=O)NC1Cc2ccc3c(c2)[C@]24C5=C(N=C(O5)[C@H](C(C)C)NC1=O)c1ncc(o1)-c1c[nH]c5cccc(c15)-c1cccc2c1NC4O3 (some centres unmarked) [Example 72] | 0.543 µM | 0.6 µM
CC(C)[C@@H]1NC(=O)C(NC(=O)c2ccc(Br)cc2)Cc2ccc3c(c2)[C@]24C5=C(N=C1O5)c1ncc(o1)-c1c[nH]c5cccc(c15)-c1cccc2c1NC4O3 (some centres unmarked) [Example 55] | 0.406 µM | 0.613 µM
CC(C)[C@@H]1NC(=O)C(NC(=O)C2(O)CCCCC2)Cc2ccc3c(c2)[C@]24C5=C(N=C1O5)c1ncc(o1)-c1c[nH]c5cccc(c15)-c1cccc2c1NC4O3 (some centres unmarked) [Example 27] | 0.128 µM | 0.181 µM
CC[C@H](C)C(=O)NC1Cc2ccc3c(c2)[C@]24C5=C(N=C(O5)[C@H](C(C)C)NC1=O)c1ncc(o1)-c1c[nH]c5cccc(c15)-c1cccc2c1NC4O3 (some centres unmarked) [Example 39] | 0.555 µM | 0.707 µM
CCC(C)(C)C(=O)NC1Cc2ccc3c(c2)[C@]24C5=C(N=C(O5)[C@H](C(C)C)NC1=O)c1ncc(o1)-c1c[nH]c5cccc(c15)-c1cccc2c1NC4O3 (some centres unmarked) [Example 40] | 0.164 µM | 0.233 µM
COc1cc(C(=O)NC2Cc3ccc4c(c3)C35C6=C(N=C(O6)[C@H](C(C)C)NC2=O)c2ncc(o2)-c2c[nH]c6cccc(c26)-c2cccc3c2N[C@H]5O4)cc(OC)c1OC (some centres unmarked) [Example 59] | 0.619 µM | 0.798 µM
CC(C)C1NC(=O)[C@@H](NC(=O)[C@@H]2C[C@@H](O)CN2)Cc2ccc3c(c2)C24C5=C(N=C1O5)c1ncc(o1)-c1c[nH]c5cccc(c15)-c1cccc2c1N[C@H]4O3 (some centres unmarked) [Example 37] | > 1 µM | > 1 µM

Compound | IC50 [1] | IC50 [2]
CC(C)[C@@H]1NC(=O)C(NC(=O)Cc2cccs2)Cc2ccc3c(c2)[C@]24C5=C(N=C1O5)c1ncc(o1)-c1c[nH]c5cccc(c15)-c1cccc2c1NC4O3 (some centres unmarked) [Example 64] | > 1 µM | > 1 µM
CCCC(C)C(=O)NC1Cc2ccc3c(c2)[C@]24C5=C(N=C(O5)[C@H](C(C)C)NC1=O)c1ncc(o1)-c1c[nH]c5cccc(c15)-c1cccc2c1NC4O3 (some centres unmarked) [Example 61] | 0.55 µM | 0.636 µM
CC(C)=CC(=O)NC1Cc2ccc3c(c2)[C@]24C5=C(N=C(O5)[C@H](C(C)C)NC1=O)c1ncc(o1)-c1c[nH]c5cccc(c15)-c1cccc2c1NC4O3 (some centres unmarked) [Example 42] | 0.221 µM | 0.409 µM
CC(C)[C@@H]1NC(=O)C(NS(=O)(=O)c2cccs2)Cc2ccc3c(c2)[C@]24C5=C(N=C1O5)c1ncc(o1)-c1c[nH]c5cccc(c15)-c1cccc2c1NC4O3 (some centres unmarked) [Example 75] | > 1 µM | > 1 µM
CC(C)[C@H](O)C(=O)N[C@H]1Cc2ccc3c(c2)C24C5=C(N=C(O5)[C@H](C(C)C)NC1=O)c1nc(Cl)c(o1)-c1c(Cl)[nH]c5cccc(c15)-c1cc(Cl)cc2c1N[C@H]4O3 (some centres unmarked) [Example 83] | 0.693 µM | 0.63 µM
CC(C)[C@H](O)C(=O)N[C@H]1Cc2ccc3c(c2)C24C5=C(N=C(O5)[C@H](C(C)C)NC1=O)c1nc(Cl)c(o1)-c1c(Cl)[nH]c5cccc(c15)-c1cccc2c1N[C@H]4O3 (stereo in doubt) [Example 85, Diazonamide A] | 0.086 µM | 0.057 µM
COc1ccc2c3c(c[nH]c13)-c1cnc(o1)-c1nc3oc1C14c5cc(ccc5O[C@@H]1Nc1c-2cccc14)CC(NC(=O)[C@@H](O)C(C)C)C(=O)N[C@H]3C(C)C (some centres unmarked) [Example 78] | 0.051 µM | 0.042 µM
CC(C)[C@@H]1NC(=O)C(NC(=O)[C@@H](O)C2CCCCC2)Cc2ccc3c(c2)[C@]24C5=C(N=C1O5)c1ncc(o1)-c1c[nH]c5cccc(c15)-c1cccc2c1NC4O3 (some centres unmarked) [Example 21] | > 1 µM | > 1 µM
CC(C)[C@@H]1NC(=O)C(NC(=O)C2(C)CCCCC2)Cc2ccc3c(c2)[C@]24C5=C(N=C1O5)c1ncc(o1)-c1c[nH]c5cccc(c15)-c1cccc2c1NC4O3 (some centres unmarked) [Example 52] | 0.491 µM | 0.386 µM
CO[C@](C(=O)NC1Cc2ccc3c(c2)[C@]24C5=C(N=C(O5)[C@H](C(C)C)NC1=O)c1ncc(o1)-c1c[nH]c5cccc(c15)-c1cccc2c1NC4O3)(c1ccccc1)C(F)(F)F (some centres unmarked) [Example 58] | 0.821 µM | > 1 µM
C=CCOC(=O)NC1Cc2ccc3c(c2)[C@]24C5=C(N=C(O5)[C@H](C(C)C)NC1=O)c1ncc(o1)-c1c[nH]c5cccc(c15)-c1cccc2c1NC4O3 (some centres unmarked) [Example 71] | 0.185 µM | 0.451 µM
CC(C)[C@@H]1NC(=O)C(NC(=O)[C@@H](O)C(C)(C)C)Cc2ccc3c(c2)[C@]24C5=C(N=C1O5)c1ncc(o1)-c1c[nH]c5cccc(c15)-c1cccc2c1NC4O3 (some centres unmarked) [Example 19] | 0.062 µM | 0.222 µM
CCC(O)(CC)C(=O)N[C@H]1Cc2ccc3c(c2)C24C5=C(N=C(O5)[C@H](C(C)C)NC1=O)c1nc(Br)c(o1)-c1c[nH]c5cccc(c15)-c1cc(Br)cc2c1N[C@H]4O3 (some centres unmarked) [Example 88] | > 1 µM | > 1 µM
C#CCOC(=O)NC1Cc2ccc3c(c2)[C@]24C5=C(N=C(O5)[C@H](C(C)C)NC1=O)c1ncc(o1)-c1c[nH]c5cccc(c15)-c1cccc2c1NC4O3 (some centres unmarked) [Example 70] | 0.434 µM | 0.692 µM
CC(C)[C@H](O)C(=O)N[C@H]1Cc2ccc3c(c2)C24C5=C(N=C(O5)[C@H](C(C)C)NC1=O)c1nc(Br)c(o1)-c1c(Cl)[nH]c5cccc(c15)-c1cccc2c1N[C@H]4O3 (some centres unmarked) [Example 89] | 0.079 µM | 0.158 µM
CC(C)C(Br)C(=O)NC1Cc2ccc3c(c2)[C@]24C5=C(N=C(O5)[C@H](C(C)C)NC1=O)c1ncc(o1)-c1c[nH]c5cccc(c15)-c1cccc2c1NC4O3 (some centres unmarked) [Example 46] | 0.443 µM | 0.313 µM
CC(C)[C@@H]1NC(=O)C(NC(=O)[C@H](O)[C@@H](NC(=O)c2ccccc2)c2ccccc2)Cc2ccc3c(c2)[C@]24C5=C(N=C1O5)c1ncc(o1)-c1c[nH]c5cccc(c15)-c1cccc2c1NC4O3 (some centres unmarked) [Example 29] | > 1 µM | > 1 µM
CC(C)[C@@H]1NC(=O)[C@@H](NC(=O)[C@@H](O)c2ccccc2)Cc2ccc3c(c2)C24C5=C(N=C1O5)c1ncc(o1)-c1c[nH]c5cccc(c15)-c1cccc2c1N[C@H]4O3 (some centres unmarked) [Example 17] | 0.465 µM | 0.63 µM
CCC(O)(CC)C(=O)N[C@H]1Cc2ccc3c(c2)C24C5=C(N=C(O5)[C@H](C(C)C)NC1=O)c1ncc(o1)-c1c[nH]c5c(OC)ccc(c15)-c1cccc2c1N[C@H]4O3 (some centres unmarked) [Example 81] | 0.054 µM | 0.123 µM
CC(C)[C@@H]1NC(=O)C(NC(=O)C(C)(C)O)Cc2ccc3c(c2)[C@]24C5=C(N=C1O5)c1ncc(o1)-c1c[nH]c5cccc(c15)-c1cccc2c1NC4O3 (some centres unmarked) [Example 22] | 0.146 µM | 0.23 µM
